In ChEMBL document CHEMBL5465560, “Selectivity Literature for EUbOPEN Chemogenomic Library” (2024):
Each block holds one compound with its values, some of them ahead of it.

Experiments:
[1] = biological target: T1, Serine/threonine-protein kinase ULK3 (Homo sapiens) (UniProt Q6PHR2); test: Selectivity interaction (Kinase panel (DSF assay)) EUB0001559a ULK3
T1 sequence (whole entry): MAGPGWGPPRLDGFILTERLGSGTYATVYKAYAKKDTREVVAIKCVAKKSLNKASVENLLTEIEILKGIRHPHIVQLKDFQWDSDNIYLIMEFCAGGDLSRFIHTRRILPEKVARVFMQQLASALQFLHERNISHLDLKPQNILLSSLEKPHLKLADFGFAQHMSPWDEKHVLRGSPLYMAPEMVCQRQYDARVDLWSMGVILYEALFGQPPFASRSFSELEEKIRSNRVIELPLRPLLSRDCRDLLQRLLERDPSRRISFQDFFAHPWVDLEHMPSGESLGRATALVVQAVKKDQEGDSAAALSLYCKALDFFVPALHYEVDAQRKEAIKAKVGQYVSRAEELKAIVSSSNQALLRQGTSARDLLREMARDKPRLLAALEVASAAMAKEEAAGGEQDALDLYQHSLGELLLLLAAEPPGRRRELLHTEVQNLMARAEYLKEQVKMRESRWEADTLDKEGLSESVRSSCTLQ

[2] = biological target: Serine/threonine-protein kinase 25 (Homo sapiens) (UniProt O00506); test: Selectivity interaction (KinomeScan (DiscoverX)) EUB0000045b STK25
Serine/threonine-protein kinase 25 (Homo sapiens), sequence (O00506 whole entry, looked up): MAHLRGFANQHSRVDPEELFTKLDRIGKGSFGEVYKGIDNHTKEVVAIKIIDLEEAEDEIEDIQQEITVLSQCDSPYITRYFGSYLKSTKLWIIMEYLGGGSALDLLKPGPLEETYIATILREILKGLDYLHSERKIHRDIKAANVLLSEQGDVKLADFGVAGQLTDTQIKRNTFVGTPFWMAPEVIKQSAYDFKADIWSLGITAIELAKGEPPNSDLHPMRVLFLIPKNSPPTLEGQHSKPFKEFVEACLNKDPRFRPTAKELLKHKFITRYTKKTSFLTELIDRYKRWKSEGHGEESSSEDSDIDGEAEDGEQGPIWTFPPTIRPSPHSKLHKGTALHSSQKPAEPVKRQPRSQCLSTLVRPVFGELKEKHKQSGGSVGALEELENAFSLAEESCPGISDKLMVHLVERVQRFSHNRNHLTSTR

[3] = biological target: Cyclin-dependent kinase 11B (Homo sapiens) (UniProt P21127); test: Selectivity interaction (KinomeScan (DiscoverX)) EUB0000045b CDK11B
Cyclin-dependent kinase 11B (Homo sapiens), sequence (P21127 whole entry): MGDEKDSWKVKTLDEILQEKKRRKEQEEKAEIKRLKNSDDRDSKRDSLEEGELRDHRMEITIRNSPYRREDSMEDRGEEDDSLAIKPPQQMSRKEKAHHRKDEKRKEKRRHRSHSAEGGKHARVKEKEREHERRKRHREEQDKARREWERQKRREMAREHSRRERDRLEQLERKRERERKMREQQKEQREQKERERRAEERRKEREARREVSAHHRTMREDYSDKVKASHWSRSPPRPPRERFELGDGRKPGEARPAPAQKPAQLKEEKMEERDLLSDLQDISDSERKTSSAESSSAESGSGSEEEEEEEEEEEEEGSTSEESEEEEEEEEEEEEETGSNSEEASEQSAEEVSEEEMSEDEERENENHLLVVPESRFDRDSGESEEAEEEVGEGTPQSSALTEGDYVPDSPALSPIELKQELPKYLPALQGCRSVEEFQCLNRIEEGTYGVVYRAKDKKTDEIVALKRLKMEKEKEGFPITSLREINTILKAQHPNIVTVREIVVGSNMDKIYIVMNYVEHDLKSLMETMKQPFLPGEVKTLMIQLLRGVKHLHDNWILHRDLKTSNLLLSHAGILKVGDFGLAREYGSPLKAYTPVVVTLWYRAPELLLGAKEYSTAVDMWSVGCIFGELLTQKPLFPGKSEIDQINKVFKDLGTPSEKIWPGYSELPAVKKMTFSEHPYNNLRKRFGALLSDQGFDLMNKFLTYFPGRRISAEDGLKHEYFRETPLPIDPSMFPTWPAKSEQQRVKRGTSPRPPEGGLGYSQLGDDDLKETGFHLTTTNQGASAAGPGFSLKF

[4] = biological target: Dual specificity mitogen-activated protein kinase kinase 1 (Homo sapiens, UniProt Q02750); test: Selectivity interaction (KinomeScan (DiscoverX)) EUB0001079a MAP2K1; details: at 1 µM
[5] = biological target: Phosphatidylinositol 4-phosphate 3-kinase C2 domain-containing subunit beta (Homo sapiens) (UniProt O00750); test: Selectivity interaction (KinomeScan (DiscoverX)) EUB0001049a PIK3C2B; details: at 1 µM
Insulin receptor = Insulin receptor (Homo sapiens, UniProt P06213); test: Selectivity interaction (Upstate Kinase Profiler service (Millipore)) EUB0000056c INSR; details: at 1 µM
Insulin receptor, sequence (P06213 28-758 limits assumed): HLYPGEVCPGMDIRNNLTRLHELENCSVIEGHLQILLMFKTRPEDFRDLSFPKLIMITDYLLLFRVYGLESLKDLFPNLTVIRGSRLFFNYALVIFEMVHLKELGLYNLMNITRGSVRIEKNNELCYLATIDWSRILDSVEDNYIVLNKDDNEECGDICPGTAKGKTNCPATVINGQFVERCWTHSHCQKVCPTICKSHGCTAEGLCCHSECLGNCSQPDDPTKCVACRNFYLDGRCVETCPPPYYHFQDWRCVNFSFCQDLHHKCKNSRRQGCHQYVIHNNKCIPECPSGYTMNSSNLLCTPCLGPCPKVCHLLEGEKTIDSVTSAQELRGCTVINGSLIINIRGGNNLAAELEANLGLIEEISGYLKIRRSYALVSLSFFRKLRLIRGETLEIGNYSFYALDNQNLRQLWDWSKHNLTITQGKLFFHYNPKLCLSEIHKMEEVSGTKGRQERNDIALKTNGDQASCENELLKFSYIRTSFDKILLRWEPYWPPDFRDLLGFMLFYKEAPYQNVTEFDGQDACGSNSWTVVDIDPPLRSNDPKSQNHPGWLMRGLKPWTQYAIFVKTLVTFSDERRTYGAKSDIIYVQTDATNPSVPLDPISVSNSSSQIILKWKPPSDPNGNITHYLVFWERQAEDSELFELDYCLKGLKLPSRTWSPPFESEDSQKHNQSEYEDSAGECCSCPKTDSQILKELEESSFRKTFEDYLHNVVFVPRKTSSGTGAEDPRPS
Insulin receptor, sequence (P06213 763-1382 limits assumed): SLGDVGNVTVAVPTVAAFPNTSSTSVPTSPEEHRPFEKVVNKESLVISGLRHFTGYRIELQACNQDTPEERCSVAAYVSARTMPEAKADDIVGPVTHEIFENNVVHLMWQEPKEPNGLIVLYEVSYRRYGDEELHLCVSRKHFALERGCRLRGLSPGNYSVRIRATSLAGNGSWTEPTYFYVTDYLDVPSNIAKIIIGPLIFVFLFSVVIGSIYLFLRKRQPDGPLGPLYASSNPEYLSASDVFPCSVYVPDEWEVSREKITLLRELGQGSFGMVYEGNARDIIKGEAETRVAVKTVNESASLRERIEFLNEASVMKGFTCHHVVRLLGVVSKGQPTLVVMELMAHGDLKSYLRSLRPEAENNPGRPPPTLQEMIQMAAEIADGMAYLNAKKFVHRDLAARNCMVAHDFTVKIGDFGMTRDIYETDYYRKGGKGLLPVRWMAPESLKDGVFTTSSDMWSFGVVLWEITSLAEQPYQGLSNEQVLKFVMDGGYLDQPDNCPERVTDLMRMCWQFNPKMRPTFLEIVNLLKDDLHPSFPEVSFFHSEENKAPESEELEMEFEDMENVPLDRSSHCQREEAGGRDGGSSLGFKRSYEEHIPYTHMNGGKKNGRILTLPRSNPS

[6] = biological target: MAP kinase-activated protein kinase 3 (Homo sapiens) (UniProt Q16644); test: Selectivity interaction (ProQinase) EUB0000171b MAPKAPK3
MAP kinase-activated protein kinase 3 (Homo sapiens), sequence (Q16644 whole entry, looked up): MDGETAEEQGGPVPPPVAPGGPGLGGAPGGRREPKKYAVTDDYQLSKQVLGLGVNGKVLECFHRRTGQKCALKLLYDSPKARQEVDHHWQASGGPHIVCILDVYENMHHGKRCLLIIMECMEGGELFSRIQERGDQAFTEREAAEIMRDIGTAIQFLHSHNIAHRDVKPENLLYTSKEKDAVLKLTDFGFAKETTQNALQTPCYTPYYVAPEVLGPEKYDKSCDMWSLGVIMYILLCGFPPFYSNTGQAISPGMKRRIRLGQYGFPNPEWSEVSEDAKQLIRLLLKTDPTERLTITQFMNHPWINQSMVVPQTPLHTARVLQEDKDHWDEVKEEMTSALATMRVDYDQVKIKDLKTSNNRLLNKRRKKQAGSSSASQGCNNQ

[7] = biological target: T2, Interleukin-1 receptor-associated kinase 3 (Homo sapiens) (UniProt Q9Y616); test: Selectivity interaction (ActivX KiNativ screen (kinase selectivity in THP-1 cell lysates)) EUB0000639a IRAK3; format: subcellular; details: lysate
T2 sequence (whole entry): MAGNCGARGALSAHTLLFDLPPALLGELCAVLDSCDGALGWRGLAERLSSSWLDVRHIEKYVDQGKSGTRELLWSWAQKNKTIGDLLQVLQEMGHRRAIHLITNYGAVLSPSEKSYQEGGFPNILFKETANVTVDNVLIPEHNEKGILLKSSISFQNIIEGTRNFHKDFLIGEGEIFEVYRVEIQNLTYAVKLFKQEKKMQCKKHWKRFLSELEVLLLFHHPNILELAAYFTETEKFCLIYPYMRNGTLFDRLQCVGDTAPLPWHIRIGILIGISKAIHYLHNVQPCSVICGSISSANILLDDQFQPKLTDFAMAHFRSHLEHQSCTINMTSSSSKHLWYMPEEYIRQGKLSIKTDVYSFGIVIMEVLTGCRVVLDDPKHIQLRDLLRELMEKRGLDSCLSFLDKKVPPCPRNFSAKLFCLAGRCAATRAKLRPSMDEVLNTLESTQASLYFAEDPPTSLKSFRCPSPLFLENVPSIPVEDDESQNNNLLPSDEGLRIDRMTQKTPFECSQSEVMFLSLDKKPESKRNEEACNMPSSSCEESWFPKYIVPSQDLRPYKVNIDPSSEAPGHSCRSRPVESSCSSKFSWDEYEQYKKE

[8] = biological target: Mitogen-activated protein kinase 4 (Homo sapiens) (UniProt P31152); test: Selectivity interaction (KinomeScan (DiscoverX)) EUB0000655a MAPK4; details: at 10 µM
Mitogen-activated protein kinase 4 (Homo sapiens), sequence (P31152 whole entry): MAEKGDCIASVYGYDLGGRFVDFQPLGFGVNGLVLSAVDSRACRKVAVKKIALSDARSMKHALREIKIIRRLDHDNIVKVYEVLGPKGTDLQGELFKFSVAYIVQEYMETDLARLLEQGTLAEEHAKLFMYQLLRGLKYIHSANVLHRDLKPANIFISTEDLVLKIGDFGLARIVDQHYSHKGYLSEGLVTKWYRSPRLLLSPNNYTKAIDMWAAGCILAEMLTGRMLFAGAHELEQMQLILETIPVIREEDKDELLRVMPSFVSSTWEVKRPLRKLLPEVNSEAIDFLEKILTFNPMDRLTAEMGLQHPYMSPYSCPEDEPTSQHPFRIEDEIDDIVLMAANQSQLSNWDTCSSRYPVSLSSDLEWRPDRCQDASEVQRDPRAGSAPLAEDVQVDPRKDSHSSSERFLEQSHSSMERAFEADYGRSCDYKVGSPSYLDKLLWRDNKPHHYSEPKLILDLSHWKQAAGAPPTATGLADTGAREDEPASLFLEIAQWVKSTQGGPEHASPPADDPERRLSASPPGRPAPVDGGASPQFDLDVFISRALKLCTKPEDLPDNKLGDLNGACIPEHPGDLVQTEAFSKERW

[9] = biological target: T3, Ephrin type-B receptor 3 (Homo sapiens) (UniProt P54753); test: Selectivity interaction (KinomeScan (DiscoverX)) EUB0000655a EPHB3; details: at 10 µM
T3 sequence (whole entry): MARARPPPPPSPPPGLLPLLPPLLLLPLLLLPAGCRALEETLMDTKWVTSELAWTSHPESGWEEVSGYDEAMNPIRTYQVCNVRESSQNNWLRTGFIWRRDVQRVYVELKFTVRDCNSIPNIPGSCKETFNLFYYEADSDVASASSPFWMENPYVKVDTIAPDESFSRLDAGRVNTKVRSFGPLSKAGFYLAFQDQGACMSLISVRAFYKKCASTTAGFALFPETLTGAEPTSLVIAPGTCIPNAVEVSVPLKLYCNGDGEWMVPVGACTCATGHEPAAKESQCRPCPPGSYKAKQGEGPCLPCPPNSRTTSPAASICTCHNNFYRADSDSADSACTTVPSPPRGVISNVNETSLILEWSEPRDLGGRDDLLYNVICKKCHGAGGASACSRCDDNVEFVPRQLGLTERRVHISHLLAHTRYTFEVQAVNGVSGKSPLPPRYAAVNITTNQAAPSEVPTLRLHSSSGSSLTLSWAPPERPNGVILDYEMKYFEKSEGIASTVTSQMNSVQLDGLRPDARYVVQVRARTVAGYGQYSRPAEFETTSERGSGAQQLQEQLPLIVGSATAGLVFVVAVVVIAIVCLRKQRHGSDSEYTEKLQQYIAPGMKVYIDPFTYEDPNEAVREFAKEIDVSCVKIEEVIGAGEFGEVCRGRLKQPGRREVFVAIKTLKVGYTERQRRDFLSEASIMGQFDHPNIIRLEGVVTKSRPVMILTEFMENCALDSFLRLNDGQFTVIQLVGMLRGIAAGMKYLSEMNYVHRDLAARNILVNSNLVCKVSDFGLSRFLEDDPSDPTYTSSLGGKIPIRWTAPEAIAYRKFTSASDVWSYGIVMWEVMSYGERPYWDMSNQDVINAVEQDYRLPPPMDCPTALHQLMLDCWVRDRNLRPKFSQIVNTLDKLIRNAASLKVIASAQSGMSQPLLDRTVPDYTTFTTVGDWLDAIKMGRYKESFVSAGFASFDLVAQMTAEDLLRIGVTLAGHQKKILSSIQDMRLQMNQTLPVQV

[10] = biological target: Ribosomal protein S6 kinase alpha-1 (Homo sapiens, UniProt Q15418); details: at 10 µM
Ribosomal protein S6 kinase alpha-1, sequence (Q15418 whole entry): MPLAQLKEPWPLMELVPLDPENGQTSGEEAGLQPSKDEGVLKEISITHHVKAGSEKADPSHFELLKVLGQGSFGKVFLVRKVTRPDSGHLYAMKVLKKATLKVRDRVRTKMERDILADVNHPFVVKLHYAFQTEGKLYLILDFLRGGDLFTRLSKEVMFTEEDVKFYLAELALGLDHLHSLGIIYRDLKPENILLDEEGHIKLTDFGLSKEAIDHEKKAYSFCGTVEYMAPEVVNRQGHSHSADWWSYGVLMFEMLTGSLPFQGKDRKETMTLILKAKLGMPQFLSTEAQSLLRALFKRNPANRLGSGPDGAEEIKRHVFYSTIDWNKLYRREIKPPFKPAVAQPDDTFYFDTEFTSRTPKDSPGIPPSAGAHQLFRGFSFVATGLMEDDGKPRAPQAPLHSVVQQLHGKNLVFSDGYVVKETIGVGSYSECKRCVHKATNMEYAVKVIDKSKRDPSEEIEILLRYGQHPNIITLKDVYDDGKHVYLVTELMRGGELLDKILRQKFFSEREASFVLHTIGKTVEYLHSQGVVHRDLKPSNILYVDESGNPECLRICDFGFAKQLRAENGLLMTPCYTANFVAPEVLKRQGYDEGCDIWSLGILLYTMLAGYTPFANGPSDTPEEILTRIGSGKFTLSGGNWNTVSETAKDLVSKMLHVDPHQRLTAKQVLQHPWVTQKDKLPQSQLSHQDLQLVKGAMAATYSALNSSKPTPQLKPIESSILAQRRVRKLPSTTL

[11] = biological target: Mitogen-activated protein kinase 9 (Homo sapiens, UniProt P45984); test: Selectivity interaction (KinomeScan (DiscoverX)) EUB0000092b MAPK9; details: at 10 µM
Mitogen-activated protein kinase 9, sequence (P45984 whole entry, looked up): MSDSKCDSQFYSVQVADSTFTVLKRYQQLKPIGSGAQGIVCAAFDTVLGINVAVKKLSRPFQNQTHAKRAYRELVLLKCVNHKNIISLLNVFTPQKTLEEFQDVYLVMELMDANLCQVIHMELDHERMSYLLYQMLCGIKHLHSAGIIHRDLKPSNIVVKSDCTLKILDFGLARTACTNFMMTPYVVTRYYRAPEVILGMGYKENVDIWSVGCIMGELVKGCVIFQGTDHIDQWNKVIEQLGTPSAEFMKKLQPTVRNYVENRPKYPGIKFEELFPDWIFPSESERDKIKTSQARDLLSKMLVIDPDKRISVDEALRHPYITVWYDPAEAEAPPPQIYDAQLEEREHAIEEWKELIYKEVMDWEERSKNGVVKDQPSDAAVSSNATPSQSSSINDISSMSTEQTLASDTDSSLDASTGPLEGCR

SMILES: C=CC(=O)Nc1cc(-n2c(=O)ccc3cnc4ccc(-c5ccc(NS(C)(=O)=O)cc5)cc4c32)ccc1C
% of control ([2]; at 1 µM): 100%
% of control ([2]; at 10 µM): 65%
% of control ([3]; at 1 µM): 100%
% of control ([3]; at 10 µM): 99%

SMILES: Nc1cnc(N2CCc3cc(S(=O)(=O)Nc4c(F)cc(Cl)cc4F)cc(N4CCCC4=O)c32)nc1 [TP-020n]
% of control [4]: 100%

SMILES: COc1cc(Nc2nc(C)cc(-c3cnn4nc(OC)ccc34)n2)cc(C(F)(F)F)c1
% of control [5]: 100%

SMILES: C=CC(=O)Nc1cccc(C(=O)Nc2ccc(Nc3cc(-c4[nH]c(SC)nc4C)ccn3)cc2)c1
% of control ([6]; at 1 µM): 100%
% of control ([6]; at 5 µM): 65%

SMILES: CN(C)CCOc1ccc(-c2nc(-c3ccncc3)c(-c3ccc4c(c3)CC/C4=N\O)[nH]2)cc1
% of control [8]: 100%
% of control [9]: 100%

SMILES: CCC(=O)N1CCN(c2ccc(-n3c(=O)ccc4cnc5ccc(-c6cnc7ccccc7c6)cc5c43)cc2C(F)(F)F)CC1
% of control [11]: 40%

Results, then the compound that gave them:

dTM [1]: -0.5 K
SMILES: CN(C(=O)c1cnn2cccnc12)c1cc2c(cc1N1CCOCC1)C(=O)N(C[C@@H](F)C(C)(C)O)C2

% of inhibition (Insulin receptor): 5%
SMILES: Cc1ccc(-c2ccc3c(ccc4sc5c(c43)NC[C@@H](C)NC5=O)n2)cn1

% of inhibition ([7]; at 0.01 µM): -3.6%
% of inhibition ([7]; at 0.04 µM): 31.1%
% of inhibition ([7]; at 0.2 µM): 72.5%
% of inhibition ([7]; at 1 µM): 89.6%
% of inhibition ([7]; at 5 µM): > 98%
SMILES: CC[C@@H]1[C@H](F)C(=O)N[C@@H]1COc1nccc2cc(C(N)=O)c(OC)cc12 [ZIMLOVISERTIB]

% of control [10]: 100%
SMILES: CCN(CC)CCCCNc1ncc2cc(-c3cc(OC)cc(OC)c3)c(NC(=O)NC(C)(C)C)nc2n1
